# In patent publication US20110003773A1, “USING FULLERENES TO ENHANCE AND STIMULATE HAIR GROWTH” (Luna Innovations Incorporated, priority 2008, published 2011):
# Test system: shaved C57/B6 mice
# Experiment: Hair growth in shaved C57/B6 mice after injection at the shaved site
# Type: in vivo
# Settings: 300 μl of 1 μg/ml in PBS injected at the shaved site every day for 12 days, vs PBS
# Experimental: The backs of C57/B6 mice were shaved bald on the intracapsular part of the back. 300 μl of phosphate buffered saline (PBS) or 300 μl of 1 μg/ml of compound 5 (labelled LnW0033 in FIG. 2) in PBS was injected at the shaved site every day for 12 days.
# The backs of C57/B6 mice were shaved bald on the intracapsular part of the back. 300 μl PBS or 300 μl of 1 μg/ml Polyhydroxy-C60 (C60(OH)˜18-24; BuckyUSA, Houston, Tex.; called “Poly C60” in FIG. 3) in PBS was injected at the shaved site every day for 12 days.
substance,measurement,value
Polyhydroxy-C60,hair growth (photograph at day 12) compared to control,hair growth enhancement
